From patent publication US11549134B2, “Modified amadoriase and method for producing the same, agent for improving surfactant resistance of amadoriase and composition for measuring HbA1c using the same” (Kikkoman Corporation, priority 2013, dated 2023)

B1: PnFX: fructosyl peptide oxidase derived from Phaeosphaeria nodorum, SEQ ID NO: 40 (protein, listed as Phaeosphaeria nodorum)
chain: MAPSRANTSVIVVGGGGTIGSSTALHLVRSGYTPSNVTVLDAYPIPSSQSAGNDLNKIMGVSLRNPVDLQLALEARQMWNEDELFKKFFHNTGRLDCAHGEKDIADLKSGYQALVDAGLDATNEWLDSEDEILKRMPLLSRDQIKGWKAIFSKDGGWLAAAKAINAVGEYLRDQGVRFGFYGAGSFKAPLLAEGVCIGVETVDGTRYYADKVVLAAGAWSPTLVELHEQCVSKAWVYGHIQLTPEEAARYKNSPVVYNGDVGFFFEPNEHGVIKVCDEFPGFTRFKMHQPFGAKAPKRISVPRSHAKHPTDTIPDASDVSIRRAIATFMPQFKNKKMFNQAMCWCTDTADAALLICEHPEWKNFVLATGDSGHSFKLLPNIGKHVVELLEGTLADDLAHAWRWRPGSGDALKSRRSAPAKDLADMPGWNHDKPRANL

Tests used:
CFP-D2 = assay: Surfactant resistance of amadoriase during addition of each stabilizer (CFP-D2); assay type: biochemical, genus Coniochaeta; conditions: 500 mM HEPES (pH 7.0), 0.08% CTAC, 37°C
Experimental: (§1) In the above surfactant resistance measuring method, various stabilizers are added and the residual activity of an amadoriase is measured in order to evaluate the effect of the stabilizers. […] The concentration sufficient to provide a buffer capacity to a solution refers to the concentration at which pH is maintained within a predetermined range (for example pH5 to 10, pH6 to 8) without having pH change due to other reagents added to the solution. A concentration insufficient to provide a buffer capacity to a solution refers to the concentration at which pH changes by addition of other reagents to the solution and pH falls outside a particular range. These concentrations vary depending upon the type and amount of other reagents to be added to a solution; however, a person skilled in the art can appropriately determine the concentration by conventional methods. Other conditions and procedure can be the same as in the above surfactant resistance measuring method.
It was studied whether or not the addition of any of various stabilizers enhanced the surfactant resistance of an amadoriase. Phosphoric acid, a tricarboxylic acid (e.g., citric acid), a dicarboxylic acid (e.g., malic acid, maleic acid, citraconic acid, malonic acid, glutaric acid, or tartaric acid), a monpcarboxylic acid (e.g., acetic acid), MES, MOPS, MOPSO, or ammonium sulfate was used as a stabilizer. As a Comparative Example, CHES was used. […] Using a 500 mM HEPES (pH 7.0) buffering agent and CFP-D2 purified as described above as a sample, any of the stabilizers was further added, and the surfactant resistance of CFP-D2 was evaluated according to the measurement method for surfactant resistance in Example 1 although under more harsh surfactant treatment conditions in which the final concentration of CTAC was set at 0.08% and the treatment temperature at 37° C.

CFP-T7 [1] = assay: Surfactant resistance of amadoriase during addition of each stabilizer (CFP-T7); assay type: biochemical, genus Coniochaeta; conditions: 500 mM HEPES (pH 7.0), 0.01% CTAC
Experimental: as §1
It was studied whether or not the addition of any of various stabilizers enhanced the surfactant resistance of an amadoriase. Phosphoric acid, a tricarboxylic acid (e.g., citric acid), a dicarboxylic acid (e.g., malic acid, maleic acid, citraconic acid, malonic acid, glutaric acid, or tartaric acid), a monpcarboxylic acid (e.g., acetic acid), MES, MOPS, MOPSO, or ammonium sulfate was used as a stabilizer. As a Comparative Example, CHES was used. To prevent change in pH when adding the stabilizer, 500 mM HEPES (pH 7.0) was used as a buffer solution; CFP-T7 purified as described above was used as a sample; the final concentration of CTAC was set at 0.01%; and any of the stabilizers was further added to evaluate the surfactant resistance of CFP-T7 according to the measurement method for surfactant resistance in Example 1. Using a 500 mM HEPES (pH 7.0) buffering agent and CFP-D2 purified as described above as a sample, any of the stabilizers was further added, and the surfactant resistance of CFP-D2 was evaluated according to the measurement method for surfactant resistance in Example 1 although under more harsh surfactant treatment conditions in which the final concentration of CTAC was set at 0.08% and the treatment temperature at 37° C.

PnFX = assay: Surfactant resistance of PnFX during addition of each stabilizer; assay type: biochemical, Phaeosphaeria nodorum; conditions: 300 mM HEPES (pH 7.0), 0.04% CTAC
Experimental: The same stabilizers as those described above were used as stabilizers; 300 mM HEPES (pH 7.0) was used as a buffering agent to prevent a change in pH when the stabilizers was each added; PnFX purified as described above was used as a sample; the final concentration of CTAC was set at 0.04%; and the surfactant resistance of PnFX was evaluated as described above.

CFP-T7 [2] = assay: Surfactant resistance of amadoriase in presence of buffering agents; assay type: biochemical, genus Coniochaeta; conditions: for CFP-T7 Residual Activity (%): 0.01% CTAC, purified CFP-T7
Experimental: In the above surfactant resistance measuring method, the residual activity of an amadoriase is measured by using various buffers in place of a 30 mM MES/21 mM Tris buffer solution. In this manner, the contribution of the buffer to the amadoriase residual activity can be evaluated. For example, in place of the 30 mM MES/21 mM Tris buffer solution (pH 6.5), e.g., a phosphate buffer solution (pH 7.0), a citrate buffer solution (pH 6.0), a HEPES buffer solution (pH 7.0) or an ACES buffer solution (pH 7.0) can be used. Other conditions and procedure can be the same as in the above surfactant resistance measuring method.
It was studied whether the surfactant resistance of an amadoriase is enhanced or not when a buffering agent other than a 30 mM MES/21 mM Tris buffering agent (pH 6.5) was used. Using CFP-T7 purified as described above as a sample, the final concentration of CTAC was set at 0.01% to evaluate the surfactant resistance of CFP-T7 according to the measurement method for surfactant resistance in Example 1 in the presence of any of various buffering agents, specifically a phosphate buffering agent containing phosphoric acid and potassium phosphate (pH 7.0), a citrate buffering agent containing citric acid and sodium citrate (pH 6.0), an MES buffering agent containing MES and it sodium salt (pH 7.0), an HEPES buffering agent containing HEPES and its sodium salt (pH 7.0), and an ACES buffering agent containing ACES and its sodium salt (pH 7.0), in place of the 30 mM MES/21 mM Tris buffering agent (pH 6.5).

[3] = Measurement of fructosyl peptide sample (αFVH) under mixing of CTAC, change in absorbance at 751 nm; assay type: biochemical; conditions: for Amount of Change in Absorbance at Wavelength of 751 nm under Mixing of Each Concentration of CTAC: as in Example 5, Table 7
Experimental: The purified enzyme of CFP-T7 and CFP-D7 obtained in Example 3-2 was used to measure a sample as shown below. The activity values of CFP-T7 and CFP-D7 were determined using (reagent 1) adjusted to pH 7.0 with αFVH at a final concentration of 5 mM as a substrate according to the method for measuring amadoriase activity.
(Reagent 4) αFVH (125 mg) was dissolved in ion-exchanged water, the volume of the solution was fixed to 10 ml, and thereby a 30 mM substrate solution was obtained. In addition, the resultant was diluted by 1/714 with a CTAC solution to provide a 42 μM αFVH/0% to 0.2% CTAC solution.
(Reagent 6) (50 μl) was added to a mixed solution of 135 μl of (reagent 5) warmed at 37° C. for 5 minutes in advance and 25 μl of the sample prepared in (11) above to start reaction, and absorbance at a wavelength of 751 nm after reaction at 37° C. for 5 minutes was measured using an automated analyzer, Bio Majesty JCA-BM1650 (from JEOL Ltd.). Absorbance (reagent blank) at a wavelength of 751 nm measured by a similar operation for (reagent 4) prepared using ion-exchanged water in place of the substrate solution was used as a control to calculate the amount of change in absorbance (difference) when each sample was measured, using the following equation. The final concentration of a colorimetric substrate, DA-64, was 0.15 mM; the final concentration of αFVH in the case of the presence of a substrate was 5 μM; and the length (optical path) of the cell used for absorbance measurement was 1 cm. Amount of change in absorbance=ΔAes−Ae0
The amount of change in absorbance when αFVH/0% to 0.2% CTAC were used as samples was calculated.
The purified preparations of amadoriases obtained as described above were used as samples to measure αFVH under the mixing of CTAC using PnFX and NvFX as in Example 5.

[4] = Buffer Solution 50 mM, pH 7.0 (citrate pH 6.0)
[5] = Buffer Solution 100 mM, pH 7.0 (citrate pH 6.0)

| Molecule | CFP-D2 Residual Activity (%) (CFP-D2; Stabilizer 5 mM) | CFP-T7 Residual Activity (%) (CFP-T7 [1]; Stabilizer 2 mM, Table 9-1) | CFP-T7 Residual Activity (%) (CFP-T7 [1]; Stabilizer 5 mM, Table 9-1) | CFP-T7 Residual Activity (%) (CFP-T7 [1]; Stabilizer 10 mM, Table 9-1) | PnFX Residual Activity (%) (PnFX; Stabilizer 5 mM) | CFP-T7 Residual Activity (%) (CFP-T7 [2]; [4]) | CFP-T7 Residual Activity (%) (CFP-T7 [2]; [5]) | CFP-T7 Residual Activity (%) (CFP-T7 [2]; Buffer Solution 150 mM, pH 7.0) | CFP-T7 Residual Activity (%) (CFP-T7 [2]; Buffer Solution 300 mM, pH 7.0) | CFP-T7 Residual Activity (%) (CFP-T7 [1]; Stabilizer 20 mM, Table 9-1) | other results |
| --- | --- | --- | --- | --- | --- | --- | --- | --- | --- | --- | --- |
| O=C(O)CC(O)C(=O)O (stereo not drawn) [Malate, malic acid] | 59.2 | 12.6 | 35.4 | 74.3 | 60.4 |  |  |  |  |  |  |
| O=S(=O)(O)CCCN1CCOCC1 [MOPS, 3-(N-morpholino)propanesulfonic acid] |  |  |  |  |  |  |  |  |  |  | CFP-D2 Residual Activity (%) (CFP-D2; Stabilizer 20 mM): 42.4%; CFP-T7 Residual Activity (%) (CFP-T7 [1]; Stabilizer 10 mM, Table 9-2): 6.5%; CFP-T7 Residual Activity (%) (CFP-T7 [1]; Stabilizer 20 mM, Table 9-2): 20.6% |
| O=C(O)CC(O)(CC(=O)O)C(=O)O [Citrate, citric acid] |  | 87.6 |  |  |  | 108.2 | 105.7 |  |  |  | CFP-T7 Residual Activity (%) (CFP-T7 [2]; Buffer Solution 10 mM, pH 7.0 (citrate pH 6.0)): 104.1%; amadoriase stabilizing effect of the buffer (in words) (CFP-T7 [2]; CFP-T7 in the presence of surfactant): inactivation due to the surfactant did not occur even at 10 mM; CFP-T7 Residual Activity (%) (CFP-T7 [1]; Stabilizer 0.2 mM, Table 9-1): 12.2%; CFP-T7 Residual Activity (%) (CFP-T7 [1]; Stabilizer 0.5 mM, Table 9-1): 30.7%; PnFX Residual Activity (%) (PnFX; Stabilizer 0.5 mM): 47.3% |
| O=P(O)(O)O [Phosphate, phosphoric acid] | 72.8 | 28.1 | 61.6 | 76.8 | 37.5 | 27.2 | 68.3 | 88.5 | 98.4 | 98.6 | CFP-T7 Residual Activity (%) (CFP-T7 [2]; Buffer Solution 20 mM, pH 7.0 (citrate pH 6.0)): 15.1%; CFP-T7 Residual Activity (%) (CFP-T7 [1]; Stabilizer 50 mM, Table 9-1): 100.0% |
| O=S(=O)(O)CCN1CCOCC1 [MES, 2-(N-morpholino)ethanesulfonic acid] |  |  |  | 19.5 |  | 14.3 | 17.6 | 62.9 | 95.8 | 54.1 | CFP-T7 Residual Activity (%) (CFP-T7 [1]; Stabilizer 40 mM, Table 9-1): 103.0%; PnFX Residual Activity (%) (PnFX; Stabilizer 20 mM): 89.6% |
| B1 |  |  |  |  |  |  |  |  |  |  | measurement of αFVH under the mixing of CTAC (in words) [3]: capable of measuring αFVH as a substrate under the mixing of CTAC at a concentration as high as 0.02% or more; Amount of Change in Absorbance at Wavelength of 751 nm under Mixing of Each Concentration of CTAC ([3]; Mixing of CTAC 0%): 0.173; Amount of Change in Absorbance at Wavelength of 751 nm under Mixing of Each Concentration of CTAC ([3]; Mixing of CTAC 0.01%): 0.115; Amount of Change in Absorbance at Wavelength of 751 nm under Mixing of Each Concentration of CTAC ([3]; Mixing of CTAC 0.02%): 0.084; Amount of Change in Absorbance at Wavelength of 751 nm under Mixing of Each Concentration of CTAC ([3]; Mixing of CTAC 0.04%): 0.026; Amount of Change in Absorbance at Wavelength of 751 nm under Mixing of Each Concentration of CTAC ([3]; Mixing of CTAC 0.06%): 0.008; Amount of Change in Absorbance at Wavelength of 751 nm under Mixing of Each Concentration of CTAC ([3]; Mixing of CTAC 0.1%): 0.003; Amount of Change in Absorbance at Wavelength of 751 nm under Mixing of Each Concentration of CTAC ([3]; Mixing of CTAC 0.2%): 0.001; PnFX Residual Activity (%) (PnFX; Stabilizer None): 27.9% |
